Laboratory results: US20230141603A1, “BENZODIAZEPINE DERIVATIVES AS GABA A GAMMA1 PAM” (Hoffmann-La Roche Inc., priority 2021, published 2023)
pKi: −log10 of the molar value.

Molecular target: T1, h-GABAA α2β2γ1 (Homo sapiens, UniProt P47869+Q8N1C3)
T1 sequence (P47869 29-451): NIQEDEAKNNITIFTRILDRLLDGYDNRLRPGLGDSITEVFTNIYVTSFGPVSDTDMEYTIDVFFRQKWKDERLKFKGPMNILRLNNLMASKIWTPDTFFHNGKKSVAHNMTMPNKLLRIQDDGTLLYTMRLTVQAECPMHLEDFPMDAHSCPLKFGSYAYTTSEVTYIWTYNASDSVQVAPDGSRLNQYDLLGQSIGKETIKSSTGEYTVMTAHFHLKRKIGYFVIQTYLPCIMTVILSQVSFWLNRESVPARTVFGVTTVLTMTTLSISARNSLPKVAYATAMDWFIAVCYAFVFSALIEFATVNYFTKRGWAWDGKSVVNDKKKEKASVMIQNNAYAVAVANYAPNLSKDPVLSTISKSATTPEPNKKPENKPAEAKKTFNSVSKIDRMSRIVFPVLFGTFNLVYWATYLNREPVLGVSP
T1 sequence (P47870 25-512 partner limits assumed): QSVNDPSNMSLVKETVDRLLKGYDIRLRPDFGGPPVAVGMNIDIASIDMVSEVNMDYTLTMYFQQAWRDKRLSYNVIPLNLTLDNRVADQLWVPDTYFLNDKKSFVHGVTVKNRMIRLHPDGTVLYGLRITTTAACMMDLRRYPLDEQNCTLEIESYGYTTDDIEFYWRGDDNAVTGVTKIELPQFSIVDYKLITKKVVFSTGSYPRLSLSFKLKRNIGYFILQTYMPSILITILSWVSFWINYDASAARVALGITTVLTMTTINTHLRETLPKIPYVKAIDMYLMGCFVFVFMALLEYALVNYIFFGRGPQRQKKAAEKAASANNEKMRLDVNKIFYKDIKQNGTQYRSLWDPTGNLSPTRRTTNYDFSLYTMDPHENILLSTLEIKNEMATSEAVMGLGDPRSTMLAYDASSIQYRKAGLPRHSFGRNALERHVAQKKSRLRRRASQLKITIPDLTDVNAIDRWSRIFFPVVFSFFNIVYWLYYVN
T1 sequence (Q8N1C3 36-465): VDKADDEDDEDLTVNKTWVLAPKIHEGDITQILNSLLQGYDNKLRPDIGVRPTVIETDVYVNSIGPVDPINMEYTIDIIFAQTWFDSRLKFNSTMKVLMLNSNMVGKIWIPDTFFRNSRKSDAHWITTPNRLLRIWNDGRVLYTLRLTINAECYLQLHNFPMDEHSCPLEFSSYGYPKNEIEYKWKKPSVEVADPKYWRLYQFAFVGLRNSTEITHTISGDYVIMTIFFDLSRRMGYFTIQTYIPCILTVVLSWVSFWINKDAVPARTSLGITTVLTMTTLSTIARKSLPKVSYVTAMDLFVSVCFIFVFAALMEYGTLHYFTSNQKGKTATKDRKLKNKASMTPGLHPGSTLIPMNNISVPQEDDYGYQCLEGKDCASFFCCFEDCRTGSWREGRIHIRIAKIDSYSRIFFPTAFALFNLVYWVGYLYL
Assay: Radioligand binding assay, [3H]RO7239181 competition, HEK293F membranes
Set-up: signal peptide of human GABAA α5 subunit (Met1 to Ser31), replacing the α2 signal peptide (N); expressed in transfected cells; host or cells: HEK293F cells (ThermoFisher R79007), membranes

SMILES	pKi
O=c1[nH]nc2n1-c1ccc(Cl)c(Cl)c1C(c1c(F)cccc1F)=NC2 [Example 9, 7,8-dichloro-6-(2,6-difluorophenyl)-2,4-dihydro-[1,2,4]triazolo[4,3-a][1,4]benzodiazepin-1-one]	8.10
Fc1cccnc1C1=NCc2nnc(-c3ccncn3)n2-c2ccc(Cl)c(Cl)c21 [Example 55, 7,8-dichloro-6-(3-fluoro-2-pyridyl)-1-pyrimidin-4-yl-4H-[1,2,4]triazolo[4,3-a][1,4]benzodiazepine]	7.73
CO[C@H]1C[C@H](c2nnc3n2-c2ccc(Cl)c(Cl)c2C(c2c(F)cccc2F)=NC3)C1 [Example 91, trans-7,8-dichloro-6-(2,6-difluorophenyl)-1-(3-methoxycyclobutyl)-4H-[1,2,4]triazolo[4,3-a][1,4]benzodiazepine]	7.44
Fc1cccc(F)c1C1=NCc2nncn2-c2ccc(Cl)c(Cl)c21 [Example 15, 7,8-dichloro-6-(2,6-difluorophenyl)-4H-[1,2,4]triazolo[4,3-a][1,4]benzodiazepine]	8.06
Cc1nnc2n1-c1ccc(C(F)F)c(Cl)c1C(c1c(F)cccc1F)=NC2 [Example 25, 7-chloro-8-(difluoromethyl)-6-(2,6-difluorophenyl)-1-methyl-4H-[1,2,4]triazolo[4,3-a][1,4]benzodiazepine]	7.31
Fc1cccc(F)c1C1=NCc2nnc(C3CCOCC3)n2-c2ccc(Cl)c(Cl)c21 [Example 11, 7,8-dichloro-6-(2,6-difluorophenyl)-1-tetrahydropyran-4-yl-4H-[1,2,4]triazolo[4,3-a][1,4]benzodiazepine]	7.31
Fc1ccccc1C1=NCc2nnc(-c3cccnn3)n2-c2ccc(Cl)c(Cl)c21 [Example 10, 7,8-dichloro-6-(2-fluorophenyl)-1-pyridazin-3-yl-4H-[1,2,4]triazolo[4,3-a][1,4]benzodiazepine]	8.02
COCCc1nnc2n1-c1ccc(Cl)c(Cl)c1C(c1c(F)cccc1F)=NC2 [Example 19, 7,8-dichloro-6-(2,6-difluorophenyl)-1-(2-methoxyethyl)-4H-[1,2,4]triazolo[4,3-a][1,4]benzodiazepine]	7.59
Cc1nnc2n1-c1ccc(I)c(Cl)c1C(c1c(F)cccc1F)=NC2 [Example 41, 7-chloro-6-(2,6-difluorophenyl)-8-iodo-1-methyl-4H-[1,2,4]triazolo[4,3-a][1,4]benzodiazepine]	8.26
Cc1ccc2c(c1Cl)C(c1c(F)cccc1F)=NCc1nnc(-c3ccncn3)n1-2 [Example 49, 7-chloro-6-(2,6-difluorophenyl)-8-methyl-1-pyrimidin-4-yl-4H-[1,2,4]triazolo[4,3-a][1,4]benzodiazepine]	7.85
O=c1[nH]nc2n1-c1ccc(Cl)c(Cl)c1C(c1ncccc1F)=NC2 [Example 59, 7,8-dichloro-6-(3-fluoro-2-pyridyl)-2,4-dihydro-[1,2,4]triazolo[4,3-a][1,4]benzodiazepin-1-one]	7.58
Fc1cccnc1C1=NCc2nncn2-c2ccc(Cl)c(Cl)c21 [Example 60, 7,8-dichloro-6-(3-fluoro-2-pyridyl)-4H-[1,2,4]triazolo[4,3-a][1,4]benzodiazepine]	7.41
Cn1cc(-c2nnc3n2-c2ccc(Cl)c(Cl)c2C(c2c(F)cccc2F)=NC3)cn1 [Example 28, 7,8-dichloro-6-(2,6-difluorophenyl)-1-(1-methylpyrazol-4-yl)-4H-[1,2,4]triazolo[4,3-a][1,4]benzodiazepine]	8.03
Fc1ccccc1C1=NCc2nnc(-c3cccnn3)n2-c2ccc(C(F)(F)F)c(Cl)c21 [Example 27, 7-chloro-6-(2-fluorophenyl)-1-pyridazin-3-yl-8-(trifluoromethyl)-4H-[1,2,4]triazolo[4,3-a][1,4]benzodiazepine]	7.07
COc1ccc2c(c1Cl)C(c1c(F)cccc1F)=NCc1nnc(-c3cccnc3)n1-2 [Example 62, 7-chloro-6-(2,6-difluorophenyl)-8-methoxy-1-(3-pyridyl)-4H-[1,2,4]triazolo[4,3-a][1,4]benzodiazepine]	7.26
Fc1cccnc1C1=NCc2nnc(-c3ccncn3)n2-c2ccc(C(F)(F)F)c(Cl)c21 [Example 69, 7-chloro-6-(3-fluoro-2-pyridyl)-1-pyrimidin-4-yl-8-(trifluoromethyl)-4H-[1,2,4]triazolo[4,3-a][1,4]benzodiazepine]	7.20
Fc1cccc(F)c1C1=NCc2nnc(-c3cccnn3)n2-c2ccc(Br)c(Br)c21 [Example 42, 7,8-dibromo-6-(2,6-difluorophenyl)-1-pyridazin-3-yl-4H-[1,2,4]triazolo[4,3-a][1,4]benzodiazepine]	8.26
Fc1cccc(F)c1C1=NCc2nnc(-c3cccnn3)n2-c2ccc(Cl)c(Cl)c21 [Example 14, 7,8-dichloro-6-(2,6-difluorophenyl)-1-pyridazin-3-yl-4H-[1,2,4]triazolo[4,3-a][1,4]benzodiazepine]	8.47
Fc1cccc(F)c1C1=NCc2nnc(-c3cccnn3)n2-c2ccc(C(F)(F)F)c(Cl)c21 [Example 38, 7-chloro-6-(2,6-difluorophenyl)-1-pyridazin-3-yl-8-(trifluoromethyl)-4H-[1,2,4]triazolo[4,3-a][1,4]benzodiazepine]	7.90
Fc1cccc(F)c1C1=NCc2nnc(-c3ccncn3)n2-c2ccc(Br)c(Br)c21 [Example 43, 7,8-dibromo-6-(2,6-difluorophenyl)-1-pyrimidin-4-yl-4H-[1,2,4]triazolo[4,3-a][1,4]benzodiazepine]	8.24
Cc1nnc2n1-c1ccc(C3CC3)c(Cl)c1C(c1c(F)cccc1F)=NC2 [Example 6, 7-chloro-8-cyclopropyl-6-(2,6-difluorophenyl)-1-methyl-4H-[1,2,4]triazolo[4,3-a][1,4]benzodiazepine]	7.03
